# In ChEMBL document CHEMBL1156482, “Molecular mechanism of action of monocyclam versus bicyclam non-peptide antagonists in the CXCR4 chemokine receptor” (J Biol Chem, 2007):
# Legend:
# [1] = system: C-X-C chemokine receptor type 4 (Homo sapiens), P61073 [I259W]; test: (§1) Antagonist activity at human CXCR4 I259W mutant expressed in COS7 cells coexpressing G protein Gqi4myr assessed as inhibition of CXCL12-induced phosphatidylinositol turnover; type: functional, cell-based; details: COS-7
# [2] = target: C-X-C chemokine receptor type 4 (Homo sapiens, UniProt P61073, I259W); test: as §1; type: functional, cell-based, COS-7
# [3] = system: C-X-C chemokine receptor type 4 (Homo sapiens), P61073 [L120F]; test: (§2) Antagonist activity at human CXCR4 L120F mutant expressed in COS7 cells coexpressing G protein Gqi4myr assessed as inhibition of CXCL12-induced phosphatidylinositol turnover; type: functional, cell-based; details: COS-7
# [4] = target: C-X-C chemokine receptor type 4 (Homo sapiens, UniProt P61073, L120F); test: as §2; type: functional, cell-based, COS-7
# [5] = target: C-X-C chemokine receptor type 4 (Homo sapiens, UniProt P61073, H113A); test: (§3) Antagonist activity at human CXCR4 H113A mutant expressed in COS7 cells coexpressing G protein Gqi4myr assessed as inhibition of CXCL12-induced phosphatidylinositol turnover; type: functional, cell-based, COS-7
# [6] = system: C-X-C chemokine receptor type 4 (Homo sapiens), P61073 [H113A]; test: as §3; type: functional, cell-based; details: COS-7
# [7] = system: C-X-C chemokine receptor type 4 (Homo sapiens), P61073 [D171N]; test: (§4) Antagonist activity at human CXCR4 D171N mutant expressed in COS7 cells coexpressing G protein Gqi4myr assessed as inhibition of CXCL12-induced phosphatidylinositol turnover; type: functional, cell-based; details: COS-7
# [8] = target: C-X-C chemokine receptor type 4 (Homo sapiens, UniProt P61073, D171N); test: as §4; type: functional, cell-based, COS-7
# [9] = target: C-X-C chemokine receptor type 4 (Homo sapiens, UniProt P61073, H281A); test: (§5) Antagonist activity at human CXCR4 H281A mutant expressed in COS7 cells coexpressing G protein Gqi4myr assessed as inhibition of CXCL12-induced phosphatidylinositol turnover; type: functional, cell-based, COS-7
# [10] = system: C-X-C chemokine receptor type 4 (Homo sapiens), P61073 [H281A]; test: as §5; type: functional, cell-based; details: COS-7
# [11] = system: C-X-C chemokine receptor type 4 (Homo sapiens), P61073 [F172A]; test: (§6) Antagonist activity at human CXCR4 F172A mutant expressed in COS7 cells coexpressing G protein Gqi4myr assessed as inhibition of CXCL12-induced phosphatidylinositol turnover; type: functional, cell-based; details: COS-7
# [12] = target: C-X-C chemokine receptor type 4 (Homo sapiens, UniProt P61073, F172A); test: as §6; type: functional, cell-based, COS-7
# [13] = target: C-X-C chemokine receptor type 4 (Homo sapiens, UniProt P61073, I284A); test: (§7) Antagonist activity at human CXCR4 I284A mutant expressed in COS7 cells coexpressing G protein Gqi4myr assessed as inhibition of CXCL12-induced phosphatidylinositol turnover; type: functional, cell-based, COS-7
# [14] = system: C-X-C chemokine receptor type 4 (Homo sapiens), P61073 [I284A]; test: as §7; type: functional, cell-based; details: COS-7
# [15] = target: C-X-C chemokine receptor type 4 (Homo sapiens, UniProt P61073, T287A); test: (§8) Antagonist activity at human CXCR4 T287A mutant expressed in COS7 cells coexpressing G protein Gqi4myr assessed as inhibition of CXCL12-induced phosphatidylinositol turnover; type: functional, cell-based, COS-7
# [16] = system: C-X-C chemokine receptor type 4 (Homo sapiens), P61073 [T287A]; test: as §8; type: functional, cell-based; details: COS-7
# [17] = target: C-X-C chemokine receptor type 4 (Homo sapiens, UniProt P61073, V196A); test: (§9) Antagonist activity at human CXCR4 V196A mutant expressed in COS7 cells coexpressing G protein Gqi4myr assessed as inhibition of CXCL12-induced phosphatidylinositol turnover; type: functional, cell-based, COS-7
# [18] = system: C-X-C chemokine receptor type 4 (Homo sapiens), P61073 [V196A]; test: as §9; type: functional, cell-based; details: COS-7
# [19] = target: C-X-C chemokine receptor type 4 (Homo sapiens, UniProt P61073, H203A); test: (§10) Antagonist activity at human CXCR4 H203A mutant expressed in COS7 cells coexpressing G protein Gqi4myr assessed as inhibition of CXCL12-induced phosphatidylinositol turnover; type: functional, cell-based, COS-7
# [20] = system: C-X-C chemokine receptor type 4 (Homo sapiens), P61073 [H203A]; test: as §10; type: functional, cell-based; details: COS-7
# [21] = target: C-X-C chemokine receptor type 4 (Homo sapiens, UniProt P61073, Y255A); test: (§11) Antagonist activity at human CXCR4 Y255A mutant expressed in COS7 cells coexpressing G protein Gqi4myr assessed as inhibition of CXCL12-induced phosphatidylinositol turnover; type: functional, cell-based, COS-7
# [22] = system: C-X-C chemokine receptor type 4 (Homo sapiens), P61073 [Y255A]; test: as §11; type: functional, cell-based; details: COS-7
# [23] = system: C-X-C chemokine receptor type 4 (Homo sapiens), P61073 [Q200W]; test: (§12) Antagonist activity at human CXCR4 Q200W mutant expressed in COS7 cells coexpressing G protein Gqi4myr assessed as inhibition of CXCL12-induced phosphatidylinositol turnover; type: functional, cell-based; details: COS-7
# [24] = target: C-X-C chemokine receptor type 4 (Homo sapiens, UniProt P61073, Q200W); test: as §12; type: functional, cell-based, COS-7
# [25] = target: C-X-C chemokine receptor type 4 (Homo sapiens, UniProt P61073); test: Antagonist activity at human wild type CXCR4 expressed in COS7 cells coexpressing G protein Gqi4myr assessed as inhibition of CXCL12-induced phosphatidylinositol turnover; type: functional, cell-based, COS-7; details: for logIC50: COS-7
# [26] = target: C-X-C chemokine receptor type 4 (Homo sapiens, UniProt P61073, D262N); test: (§13) Antagonist activity at human CXCR4 D262N mutant expressed in COS7 cells coexpressing G protein Gqi4myr assessed as inhibition of CXCL12-induced phosphatidylinositol turnover; type: functional, cell-based, COS-7
# [27] = system: C-X-C chemokine receptor type 4 (Homo sapiens), P61073 [D262N]; test: as §13; type: functional, cell-based; details: COS-7
# [28] = target: C-X-C chemokine receptor type 4 (Homo sapiens, UniProt P61073, E288A); test: (§14) Antagonist activity at human CXCR4 E288A mutant expressed in COS7 cells coexpressing G protein Gqi4myr assessed as inhibition of CXCL12-induced phosphatidylinositol turnover; type: functional, cell-based, COS-7
# [29] = system: C-X-C chemokine receptor type 4 (Homo sapiens), P61073 [E288A]; test: as §14; type: functional, cell-based; details: COS-7
# [30] = target: C-X-C chemokine receptor type 4 (Homo sapiens, UniProt P61073, A175F); test: (§15) Antagonist activity at human CXCR4 A175F mutant expressed in COS7 cells coexpressing G protein Gqi4myr assessed as inhibition of CXCL12-induced phosphatidylinositol turnover; type: functional, cell-based, COS-7
# [31] = system: C-X-C chemokine receptor type 4 (Homo sapiens), P61073 [A175F]; test: as §15; type: functional, cell-based; details: COS-7
# [32] = system: C-X-C chemokine receptor type 4 (Homo sapiens), P61073 [I259A]; test: (§16) Antagonist activity at transmembrane domain 6 of human CXCR4 I259A mutant expressed in COS7 cells coexpressing G protein Gqi4myr assessed as inhibition of CXCL12-induced phosphatidylinositol turnover; type: functional, cell-based; details: COS-7
# [33] = target: C-X-C chemokine receptor type 4 (Homo sapiens, UniProt P61073, I259A); test: as §16; type: functional, cell-based, COS-7
# [34] = system: C-X-C chemokine receptor type 4 (Homo sapiens), P61073 [Q200A]; test: (§17) Antagonist activity at human CXCR4 Q200A mutant expressed in COS7 cells coexpressing G protein Gqi4myr assessed as inhibition of CXCL12-induced phosphatidylinositol turnover; type: functional, cell-based; details: COS-7
# [35] = target: C-X-C chemokine receptor type 4 (Homo sapiens, UniProt P61073, Q200A); test: as §17; type: functional, cell-based, COS-7
# Sequence of C-X-C chemokine receptor type 4 (Homo sapiens, UniProt P61073) (P61073 whole entry): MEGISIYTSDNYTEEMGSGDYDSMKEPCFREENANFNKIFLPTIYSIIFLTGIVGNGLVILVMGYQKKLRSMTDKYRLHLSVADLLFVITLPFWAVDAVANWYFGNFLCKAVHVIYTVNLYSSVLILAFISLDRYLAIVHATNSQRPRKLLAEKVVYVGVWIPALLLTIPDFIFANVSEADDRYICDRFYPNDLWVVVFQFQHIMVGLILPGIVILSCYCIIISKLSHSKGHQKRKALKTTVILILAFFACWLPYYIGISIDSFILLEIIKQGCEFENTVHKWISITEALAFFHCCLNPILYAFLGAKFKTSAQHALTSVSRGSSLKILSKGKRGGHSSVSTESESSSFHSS
# Sequence of C-X-C chemokine receptor type 4 (Homo sapiens), P61073 [I259W] (P61073 whole entry I259W): as the sequence (P61073 whole entry) above, with I259W counted along it
# Sequence of C-X-C chemokine receptor type 4 (Homo sapiens, UniProt P61073, I259W) (P61073 whole entry I259W): as the sequence (P61073 whole entry) above, with I259W counted along it
# Sequence of C-X-C chemokine receptor type 4 (Homo sapiens), P61073 [Y255A] (P61073 whole entry Y255A): as the sequence (P61073 whole entry) above, with Y255A counted along it
# Sequence of C-X-C chemokine receptor type 4 (Homo sapiens, UniProt P61073, Y255A) (P61073 whole entry Y255A): as the sequence (P61073 whole entry) above, with Y255A counted along it
# Sequence of C-X-C chemokine receptor type 4 (Homo sapiens), P61073 [Q200W] (P61073 whole entry Q200W): as the sequence (P61073 whole entry) above, with Q200W counted along it
# Sequence of C-X-C chemokine receptor type 4 (Homo sapiens, UniProt P61073, Q200W) (P61073 whole entry Q200W): as the sequence (P61073 whole entry) above, with Q200W counted along it
# Sequence of C-X-C chemokine receptor type 4 (Homo sapiens), P61073 [D262N] (P61073 whole entry D262N): as the sequence (P61073 whole entry) above, with D262N counted along it
# Sequence of C-X-C chemokine receptor type 4 (Homo sapiens, UniProt P61073, D262N) (P61073 whole entry D262N): as the sequence (P61073 whole entry) above, with D262N counted along it
# Sequence of C-X-C chemokine receptor type 4 (Homo sapiens), P61073 [H113A] (P61073 whole entry H113A): as the sequence (P61073 whole entry) above, with H113A counted along it
# Sequence of C-X-C chemokine receptor type 4 (Homo sapiens, UniProt P61073, H113A) (P61073 whole entry H113A): as the sequence (P61073 whole entry) above, with H113A counted along it
# Sequence of C-X-C chemokine receptor type 4 (Homo sapiens, UniProt P61073, T287A) (P61073 whole entry T287A): as the sequence (P61073 whole entry) above, with T287A counted along it
# Sequence of C-X-C chemokine receptor type 4 (Homo sapiens), P61073 [T287A] (P61073 whole entry T287A): as the sequence (P61073 whole entry) above, with T287A counted along it
compound,measurement,setting,value
Cc1ccc(CN2CCCNCCNCCCNCC2)cc1,logIC50,[1],-4.62
same,Ki,[2],24 µM
same,logIC50,[3],-4.87
same,Ki,[4],13 µM
same,Ki,[5],275 µM
same,logIC50,[6],-3.56
same,logIC50,[7],-3.97
same,Ki,[8],107 µM
same,Ki,[9],22 µM
same,logIC50,[10],-4.66
same,logIC50,[11],-4.82
same,Ki,[12],15 µM
same,Ki,[13],2.3 µM
same,logIC50,[14],-5.64
same,Ki,[15],3.3 µM
same,logIC50,[16],-5.49
same,Ki,[17],28 µM
same,logIC50,[18],-4.56
same,Ki,[19],32 µM
same,logIC50,[20],-4.5
same,Ki,[21],37 µM
same,logIC50,[22],-4.43
same,logIC50,[23],-4.22
same,Ki,[24],60 µM
same,Ki,[25],20 µM
same,logIC50,[25],-4.69
same,Ki,[26],2.9 µM
same,logIC50,[27],-5.54
same,Ki,[28],303 µM
same,logIC50,[29],-3.52
same,Ki,[30],2240 µM
same,logIC50,[31],-2.65
same,logIC50,[32],-5.6
same,Ki,[33],2.5 µM
same,logIC50,[34],-4.1
same,Ki,[35],80 µM
c1ccc(CNCc2ccc(CN3CCCNCCNCCCNCC3)cc2)cc1,logIC50,[1],-5.5
same,Ki,[2],3.1 µM
same,logIC50,[3],-6.36
same,Ki,[4],0.44 µM
same,Ki,[5],18 µM
same,logIC50,[6],-4.74
same,logIC50,[7],-4.85
same,Ki,[8],14 µM
same,Ki,[9],1.8 µM
same,logIC50,[10],-5.75
same,logIC50,[11],-5.92
same,Ki,[12],0.17 µM
same,Ki,[13],0.42 µM
same,logIC50,[14],-6.38
same,Ki,[15],0.34 µM
same,logIC50,[16],-6.46
same,Ki,[17],1.3 µM
same,logIC50,[18],-5.88
same,Ki,[19],7.2 µM
same,logIC50,[20],-5.14
same,Ki,[21],8.8 µM
same,logIC50,[22],-5.05
same,logIC50,[23],-5.14
same,Ki,[24],7.2 µM
same,Ki,[25],1.7 µM
same,logIC50,[25],-5.76
same,Ki,[26],2.3 µM
same,logIC50,[27],-5.64
same,Ki,[28],11 µM
same,logIC50,[29],-4.96
same,Ki,[30],128 µM
same,logIC50,[31],-3.89
same,logIC50,[32],-6.04
same,Ki,[33],0.91 µM
same,logIC50,[34],-4.91
same,Ki,[35],12 µM
